Measurements as given in patent US20220098203A1 (priority 2018, published 2022).
Read-outs that look alike come from different tables or passages of the source.

How the values were obtained:
[1] = system: SAM in HCT116 MTAP-deleted cells; experiment: Cellular assay of target engagement (SAM), LC-MS/MS; type: cell-based, human; conditions: 72 h, read-out: Cell 72 h SAM Inhibition (MTAP −/−)
Procedure, shortened: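 HCT116 cells with MTAP deleted were treated with compound for 72 h at 37°C/5% CO2. After quenching lysis in cold 80% methanol with 1 M acetic acid, SAM was quantified by LC-MS/MS against a d3-SAM internal standard.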

MAT2A homodimer = molecular target: T1, MAT2A homodimer (Homo sapiens, UniProt P31153); experiment: MAT2A biochemical assay (liberated phosphate, PiColorLock Gold); conditions: Table 5a; MAT2A biochemical assay; read-out: Enzyme Inhibition
T1 construct: inferred from the Ni sepharose purification and imidazole elution; made in house; host or cells: SF9 insect cells, recombinant baculovirus (Bac to Bac, pFASTBAC1)
T1 sequence (P31153 whole entry): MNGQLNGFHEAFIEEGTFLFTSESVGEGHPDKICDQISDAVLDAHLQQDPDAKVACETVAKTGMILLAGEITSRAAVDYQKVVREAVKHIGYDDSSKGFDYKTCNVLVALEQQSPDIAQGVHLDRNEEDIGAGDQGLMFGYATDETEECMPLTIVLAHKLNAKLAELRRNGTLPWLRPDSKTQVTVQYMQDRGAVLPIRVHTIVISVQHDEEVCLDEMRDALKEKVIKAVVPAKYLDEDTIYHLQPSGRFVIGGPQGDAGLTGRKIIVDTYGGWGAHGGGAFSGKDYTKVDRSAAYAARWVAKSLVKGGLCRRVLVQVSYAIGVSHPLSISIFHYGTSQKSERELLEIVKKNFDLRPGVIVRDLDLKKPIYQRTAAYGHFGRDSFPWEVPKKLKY
Procedure, shortened: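 Baculovirus/Sf9-expressed, Ni-purified MAT2A homodimer preincubated with compound 60 min at 25 °C, then reacted 60 min at 25 °C with substrate mix of 500 μM ATP and 400 μM L-methionine, pH 7.0 (mix, not final levels). Phosphate released with SAM measured by PiColorLock Gold against phosphate standard curve.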

HCT116 MTAP-/- = experiment: Inhibition of cellular proliferation (Cell Titer Glo), HCT116 MTAP-/-; type: cell-based, human; conditions: 4 days, read-out: 4 Day Relative Growth Inhibition (MTAP −/−)
Procedure, shortened: (§1)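 Isogenic HCT116 MTAP+/+ and MTAP−/− cells were plated, treated with MAT2A inhibitor after 24 h, and incubated 4 days at 37 °C. Proliferation was read by CellTiter-Glo ATP luminescence, blank-subtracted and normalized to 0.2% DMSO control.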

HCT116 MTAP+/+ = experiment: Inhibition of cellular proliferation (Cell Titer Glo), HCT116 MTAP+/+; type: cell-based; conditions: Homo sapiens, HCT-116, 96 h, Table 5a, 4 days, read-out: 4 Day Relative Growth Inhibition (MTAP +/+)
Procedure, shortened: as §1

[2] = Homo sapiens, HCT-116, Table 5a
[3] = Homo sapiens, HCT-116, 96 h, Table 5a
[4] = Table 6, select pairs of compounds

In the case of Cn1cc2cc(N3Cc4ccc(OCC(F)F)nc4N(c4ccc5scnc5c4)C3=O)ccc2n1 [Example 170, 1-(benzo[d]thiazol-5-yl)-7-(2,2-difluoroethoxy)-3-(2-methyl-2H-indazol-5-yl)-3,4-dihydropyrido[2,3-d]pyrimidin-2(1H)-one], the IC50 [1, 2] is reported as < 100 nM, the IC50 (MAT2A homodimer) is reported as < 100 nM and the IC50 (HCT116 MTAP-/-; [3]) is reported as < 100 nM. For the same compound, the IC50 (HCT116 MTAP+/+) was 100 to 1000 nM.
Cn1cc2cc(N3Cc4ccc(OCC(F)F)nc4N(c4ccc5c(ccn5C)c4)C3=O)ccc2n1 [Example 172, 7-(2,2-difluoroethoxy)-1-(1-methyl-1H-indol-5-yl)-3-(2-methyl-2H-indazol-5-yl)-3,4-dihydropyrido[2,3-d]pyrimidin-2(1H)-one] was tested, and the IC50 [1, 2] was < 100 nM, the IC50 (MAT2A homodimer) was < 100 nM and the IC50 (HCT116 MTAP-/-; [3]) was < 100 nM. For the same compound, the IC50 (HCT116 MTAP+/+) was 100 to 1000 nM.
With Cn1cc2cc(N3Cc4ccc(OCC(F)F)nc4N(c4ccc5ncccc5c4)C3=O)ccc2n1 [Example 175, 7-(2,2-difluoroethoxy)-3-(2-methyl-2H-indazol-5-yl)-1-(quinolin-6-yl)-3,4-dihydropyrido[2,3-d]pyrimidin-2(1H)-one] the IC50 [1, 2] was < 100 nM, the IC50 (MAT2A homodimer) was < 100 nM and the IC50 (HCT116 MTAP-/-; [3]) was 100 to 1000 nM. The IC50 (HCT116 MTAP+/+) was 100 to 1000 nM.
For Cn1cc2cc(N3Cc4ccc(OCC(F)F)nc4N(c4ccc5sncc5c4)C3=O)ccc2n1 [Example 176, 1-(benzo[d]isothiazol-5-yl)-7-(2,2-difluoroethoxy)-3-(2-methyl-2H-indazol-5-yl)-3,4-dihydropyrido[2,3-d]pyrimidin-2(1H)-one], the IC50 [1, 2] was 100 to 1000 nM, the IC50 (MAT2A homodimer) was < 100 nM and the IC50 (HCT116 MTAP-/-; [3]) was 100 to 1000 nM. For the same compound, the IC50 (HCT116 MTAP+/+) was > 1000 nM.
In the case of Cn1cc2cc(N3Cc4ccc(OCC(F)F)nc4N(c4ccc5nscc5c4)C3=O)ccc2n1 [Example 177, 1-(benzo[c]isothiazol-5-yl)-7-(2,2-difluoroethoxy)-3-(2-methyl-2H-indazol-5-yl)-3,4-dihydropyrido[2,3-d]pyrimidin-2(1H)-one], the IC50 [1, 2] is reported as < 100 nM, the IC50 (MAT2A homodimer) is reported as < 100 nM and the IC50 (HCT116 MTAP-/-; [3]) is reported as 100 to 1000 nM. For the same compound, the IC50 (HCT116 MTAP+/+) was > 1000 nM.
With COC1CC=C(N2C(=O)N(c3ccc4nn(C)cc4c3)Cc3ccc(OCC(F)F)nc32)CC1 (stereo not drawn) [Example 178, 7-(2,2-difluoroethoxy)-1-(4-methoxycyclohex-1-en-1-yl)-3-(2-methyl-2H-indazol-5-yl)-3,4-dihydropyrido[2,3-d]pyrimidin-2(1H)-one] the IC50 [1, 2] was < 100 nM, the IC50 (MAT2A homodimer) was < 100 nM and the IC50 (HCT116 MTAP-/-; [3]) was < 100 nM. For the same compound, the IC50 (HCT116 MTAP+/+) was 100 to 1000 nM.
With Cn1cc2cc(N3Cc4ccc(OCC(F)F)nc4N(c4ccc5[nH]nnc5c4)C3=O)ccc2n1 [Example 179, 1-(1H-benzo[d][1,2,3]triazol-5-yl)-7-(2,2-difluoroethoxy)-3-(2-methyl-2H-indazol-5-yl)-3,4-dihydropyrido[2,3-d]pyrimidin-2(1H)-one] the IC50 [1, 2] was > 1000 nM, the IC50 (MAT2A homodimer) was < 100 nM and the IC50 (HCT116 MTAP-/-; [3]) was > 1000 nM. For the same compound, the IC50 (HCT116 MTAP+/+) was > 1000 nM.
With COc1ccc(N2C(=O)N(c3ccc4nn(C)cc4c3)Cc3ncc(OCC(F)F)nc32)cc1 [Example 180, 7-(2,2-difluoroethoxy)-1-(4-methoxyphenyl)-3-(2-methyl-2H-indazol-5-yl)-3,4-dihydropteridin-2(1H)-one] the IC50 [1, 2] was < 100 nM, the IC50 (MAT2A homodimer) was < 100 nM and the IC50 (HCT116 MTAP-/-; [3]) was < 100 nM. It also gave an IC50 (HCT116 MTAP+/+) of 100 to 1000 nM.
With [2H]C([2H])([2H])Oc1ccc(N2C(=O)N(c3ccc4nn(C)cc4c3)Cc3ncc(OCC(F)F)nc32)cc1 [Example 181, 7-(2,2-difluoroethoxy)-1-(4-(methoxy-d3)phenyl)-3-(2-methyl-2H-indazol-5-yl)-3,4-dihydropteridin-2(1H)-one] the IC50 [1, 2] was < 100 nM, the IC50 (MAT2A homodimer) was < 100 nM and the IC50 (HCT116 MTAP-/-; [3]) was < 100 nM. The IC50 (HCT116 MTAP+/+) was > 1000 nM.
Cn1cc2cc(N3Cc4ncc(OCC(F)F)nc4N(c4ccc(OC(F)F)cc4)C3=O)ccc2n1 [Example 182, 7-(2,2-difluoroethoxy)-1-(4-(difluoromethoxy)phenyl)-3-(2-methyl-2H-indazol-5-yl)-3,4-dihydropteridin-2(1H)-one] was tested, and the IC50 [1, 2] was < 100 nM, the IC50 (MAT2A homodimer) was < 100 nM and the IC50 (HCT116 MTAP-/-; [3]) was 100 to 1000 nM. For the same compound, the IC50 (HCT116 MTAP+/+) was 100 to 1000 nM.
For CCOc1cnc2c(n1)N(c1ccc(OC(F)F)cc1)C(=O)N(c1ccc3nn(C)cc3c1)C2 [Example 183, 1-(4-(difluoromethoxy)phenyl)-7-ethoxy-3-(2-methyl-2H-indazol-5-yl)-3,4-dihydropteridin-2(1H)-one], the IC50 [1, 2] was < 100 nM, the IC50 (MAT2A homodimer) was < 100 nM and the IC50 (HCT116 MTAP-/-; [3]) was 100 to 1000 nM. The IC50 (HCT116 MTAP+/+) was > 1000 nM.
With Cn1cc2cc(N3Cc4cc(F)c(OCC(F)F)nc4N(c4ccc(OC(F)F)cc4)C3=O)ccc2n1 [Example 184] the IC50 [1, 2] was 100 to 1000 nM, the IC50 (MAT2A homodimer) was < 100 nM and the IC50 (HCT116 MTAP-/-; [3]) was 100 to 1000 nM. The IC50 (HCT116 MTAP+/+) was > 1000 nM.
[2H]C([2H])([2H])Oc1ccc(N2C(=O)N(c3ccc4nn(C)cc4c3)Cc3c(C)cc(OCC(F)F)nc32)cc1 [Example 185, 7-(2,2-difluoroethoxy)-1-(4-methoxy-d3-phenyl)-5-methyl-3-(2-methyl-2H-indazol-5-yl)-3,4-dihydropyrido[2,3-d]pyrimidin-2(1H)-one] was tested, and the IC50 [1, 2] was < 100 nM, the IC50 (MAT2A homodimer) was < 100 nM and the IC50 (HCT116 MTAP-/-; [3]) was < 100 nM. The IC50 (HCT116 MTAP+/+) was 100 to 1000 nM.
In the case of CCOc1cnc2c(n1)N(c1ccc(OC(F)F)cc1)C(=O)N(c1ccc(OC)cc1)C2 [Example 186, 1-(4-(difluoromethoxy)phenyl)-7-ethoxy-3-(4-methoxyphenyl)-3,4-dihydropteridin-2(1H)-one], the IC50 [1, 2] is reported as 100 to 1000 nM, the IC50 (MAT2A homodimer) is reported as < 100 nM and the IC50 (HCT116 MTAP-/-; [3]) is reported as < 100 nM. For the same compound, the IC50 (HCT116 MTAP+/+) was 100 to 1000 nM.
CCOc1cc2c(cn1)CN(c1ccc3nn(C)cc3c1)C(=O)N2c1ccc(OC(F)F)cc1 [Example 187, 1-(4-(difluoromethoxy)phenyl)-7-ethoxy-3-(2-methyl-2H-indazol-5-yl)-3,4-dihydropyrido[4,3-d]pyrimidin-2(1H)-one] was tested, and the IC50 [1, 2] was > 1000 nM, the IC50 (MAT2A homodimer) was 100 to 1000 nM and the IC50 (HCT116 MTAP-/-; [3]) was > 1000 nM. For the same compound, the IC50 (HCT116 MTAP+/+) was > 1000 nM.
For COc1ccc(N2Cc3cnc(NCC(F)F)nc3N(c3ccc(-c4nc[nH]n4)cc3)C2=O)cc1 [Example 188, 1-(4-(1H-1,2,4-triazol-3-yl)phenyl)-7-((2,2-difluoroethyl)amino)-3-(4-methoxyphenyl)-3,4-dihydropyrimido[4,5-d]pyrimidin-2(1H)-one], the IC50 [1, 2] was 100 to 1000 nM, the IC50 (MAT2A homodimer) was < 100 nM and the IC50 (HCT116 MTAP-/-; [3]) was 100 to 1000 nM. For the same compound, the IC50 (HCT116 MTAP+/+) was > 1000 nM.
With CCNc1ncc2c(n1)N(c1ccc(OC(F)F)cc1)C(=O)N(c1ccc3nn(C)cc3c1)C2 [Example 190, 1-(4-(difluoromethoxy)phenyl)-7-(ethylamino)-3-(2-methyl-2H-indazol-5-yl)-3,4-dihydropyrimido[4,5-d]pyrimidin-2(1H)-one] the IC50 [1, 2] was 100 to 1000 nM, the IC50 [1, 4] was 100 to 1000 nM and the IC50 (MAT2A homodimer) was < 100 nM. The IC50 (HCT116 MTAP-/-; [3]) was 100 to 1000 nM, the IC50 (HCT116 MTAP-/-; [4]) was 100 to 1000 nM and the IC50 (HCT116 MTAP+/+) was > 1000 nM.
In the case of COc1ccc(N2Cc3cnc(NCC(F)(F)F)nc3N(c3ccc(-c4nc[nH]n4)cc3)C2=O)cc1 [Example 193, 1-(4-(1H-1,2,4-triazol-3-yl)phenyl)-3-(4-methoxyphenyl)-7-((2,2,2-trifluoroethyl)amino)-3,4-dihydropyrimido[4,5-d]pyrimidin-2(1H)-one], the IC50 [1, 2] is reported as < 100 nM, the IC50 (MAT2A homodimer) is reported as < 100 nM and the IC50 (HCT116 MTAP-/-; [3]) is reported as 100 to 1000 nM. For the same compound, the IC50 (HCT116 MTAP+/+) was > 1000 nM.
For COc1ccc(N2Cc3cnc(NCC(F)(F)F)nc3N(c3ccc(-c4c[nH]cn4)cc3)C2=O)cc1 [Example 196, 1-(4-(1H-imidazol-4-yl)phenyl)-3-(4-methoxyphenyl)-7-((2,2,2-trifluoroethyl)amino)-3,4-dihydropyrimido[4,5-d]pyrimidin-2(1H)-one], the IC50 [1, 2] was 100 to 1000 nM, the IC50 (MAT2A homodimer) was < 100 nM and the IC50 (HCT116 MTAP-/-; [3]) was 100 to 1000 nM. For the same compound, the IC50 (HCT116 MTAP+/+) was > 1000 nM.
